Experimental data: patent publication US7750038B2, “Sulfonylated heterocycles useful for modulation of the progesterone receptor” (Wyeth LLC, priority 2007, dated 2010)
Like-named read-outs stand apart in the source and are kept apart here.

Test system: alkaline phosphatase activity in T47D cells
Assay: Effects of progestins and antiprogestins on alkaline phosphatase activity in T47D cells
Assay type: cell-based
Details: Homo sapiens
Experimental: Effects of Progestins and Antiprogestins on Alkaline Phosphatase Activity in T47D Cells
PURPOSE: To identify progestins or antiprogestins by determining a compound's effect on alkaline phosphatase activity in T47D cells.
Culture medium: DMEM:F12 (1:1) (GIBCO, BRL) supplemented with 5% (v/v) charcoal stripped fetal bovine serum (not heat-inactivated), 100 U/mL penicillin, 100 μg/mL streptomycin, and 2 mM the GlutaMax™ reagent (GIBCO, BRL).
Alkaline phosphatase assay buffer: • I. 0.1M Tris-HCl, pH 9.8, containing 0.2% the Triton® X-100 reagent • II. 0.1M Tris-HCl, pH 9.8, containing 4 mM p-nitrophenyl phosphate (Sigma).
Frozen T47D cells were thawed in a 37° C. water bath and diluted to 280,000 cells/mL in culture medium. To each well in a 96-well plate (Falcon, Becton Dickinson Labware), 180 μL of diluted cell suspension was added. Twenty μL of reference or test compounds diluted in the culture medium was then added to each well. When testing for progestin antagonist activity, reference antiprogestins or test compounds were added in the presence of 1 nM progesterone. The cells were incubated at 37° C. in a 5% CO2/humidified atmosphere for 24 hours. For high throughput screening, one concentration of each compound was tested at 0.3 μg/mL. Based on an average molecular weight of 300 g/mol for the compounds in the library, the concentration was approximately 1 μM. Subsequently, active compounds were tested in dose response assays to determine EC50 and IC50.
At the end of treatment, the medium was removed from the plate. Fifty μL of assay buffer I was added to each well. The plates were shaken in a titer plate shaker for 15 min. Then, 150 μL of assay buffer II was added to each well. Optical density measurements were taken at 5 min intervals for 30 min at a test wavelength of 405 nm.
For reference and test compounds, a dose response curve was generated for dose (X-axis) vs. the rate of enzyme reaction (slope) (Y-axis). Square root-transformed data were used for analysis of variance and nonlinear dose response curve fitting for both agonist and antagonist modes. Huber weighting was used to down-weight the effects of outliers. EC50 or IC50 values were calculated from the retransformed values. JMP software (SAS Institute, Inc.) is used for both one-way analysis of variance and non-4 linear dose response analysis in both single dose and dose response studies.
Progesterone and trimegestone are reference progestins known in the art and typically show an EC50 of about 0.1 nM to about 2.0 nM.

[1] = progestin antagonist mode in the presence of 1 nM progesterone, 24 hours, read-out: Alkaline Phosphatase T47D IC50

SMILES	IC50 [1] [nM]	also measured
Cn1c(C#N)ccc1-c1ccc2c(c1)CCN2S(C)(=O)=O [Example 1, 1-methyl-5-[1-(methylsulfonyl)-2,3-dihydro-1H-indole-5-yl]-1H-pyrrole-2-carbonitrile]	4.3	–
Cn1c(C#N)ccc1-c1ccc2c(c1)C(C)(C)CN2S(C)(=O)=O [Example 2, 5-[3,3-dimethyl-1-(methylsulfonyl)-2,3-dihydro-1H-indol-5-yl]-1-methyl-1H-pyrrole-2-carbonitrile]	9.2	–
CCS(=O)(=O)N1CC(C)(C)c2cc(-c3ccc(C#N)n3C)ccc21 [Example 3, 5-[1-(ethylsulfonyl)-3,3-dimethyl-2,3-dihydro-1H-indol-5-yl]-1-methyl-1H-pyrrole-2-carbonitrile]	6.8	–
CCS(=O)(=O)N1CCc2cc(-c3ccc(C#N)n3C)ccc21 [Example 4, 5-[1-(ethylsulfonyl)-2,3-dihydro-1H-indol-5-yl]-1-methyl-1H-pyrrole-2-carbonitrile]	2.4	–
CC(C)S(=O)(=O)N1CCc2cc(-c3ccc(C#N)n3C)ccc21 [Example 5, 5-[1-(isopropylsulfonyl)-2,3-dihydro-1H-indol-5-yl]-1-methyl-1H-pyrrole-2-carbonitrile]	4.9	–
CCCS(=O)(=O)N1CCc2cc(-c3ccc(C#N)n3C)ccc21 [Example 6, 1-methyl-5-[1-(propylsulfonyl)-2,3-dihydro-1H-indol-5-yl]-1H-pyrrole-2-carbonitrile]	2.3	–
Cn1c(C#N)ccc1-c1cc(F)c2c(c1)CCN2S(C)(=O)=O [Example 7, 5-[7-fluoro-1-(methylsulfonyl)-2,3-dihydro-1H-indol-5-yl]-1-methyl-1H-pyrrole-2-carbonitrile]	11.1	–
CCS(=O)(=O)N1CCc2cc(-c3ccc(C#N)n3C)cc(F)c21 [Example 8, 5-[1-(ethylsulfonyl)-7-fluoro-2,3-dihydro-1H-indol-5-yl]-1-methyl-1H-pyrrole-2-carbonitrile]	12.2	–
CC(=O)[C@H]1CC[C@H]2[C@@H]3CCC4=CC(=O)CC[C@]4(C)[C@H]3CC[C@]12C [Progesterone]	–	EC50 (agonist mode, typical value of reference compound): 0.1 to 2 nM
CC#C[C@]1(O)CC[C@H]2[C@@H]3CCC4=CC(=O)CCC4=C3[C@@H](c3ccc(N(C)C)cc3)C[C@@]21C [RU486, reference compound]	–	IC50 (antagonist mode, typical value of reference compound, read-out: IC50 of reference antiprogestin, alkaline phosphatase T47D): 0.1 to 2 nM

More lines, main results first:

IC50 [1] [nM]	SMILES	also measured
4.4	Cn1c(C#N)ccc1-c1ccc2c(c1)CCCN2S(C)(=O)=O [Example 9, 1-methyl-5-[1-(methylsulfonyl)-1,2,3,4-tetrahydroquinolin-6-yl]-1H-pyrrole-2-carbonitrile]	–
3.15	CCS(=O)(=O)N1CCCc2cc(-c3ccc(C#N)n3C)ccc21 [Example 10, 5-[1-(ethylsulfonyl)-1,2,3,4-tetrahydroquinolin-6-yl]-1-methyl-1H-pyrrole-2-carbonitrile]	–
3.6	CCCS(=O)(=O)N1CCCc2cc(-c3ccc(C#N)n3C)ccc21 [Example 11, 1-methyl-5-[1-(propylsulfonyl)-1,2,3,4-tetrahydroquinolin-6-yl]-1H-pyrrole-2-carbonitrile]	–
